{"source": "ChEMBL document CHEMBL4024761", "about": "“Protac-Induced Protein Degradation in Drug Discovery: Breaking the Rules or Just Making New Ones?” (J Med Chem, 2018)", "key": {"[1]": {"target": "von Hippel-Lindau disease tumor suppressor (Homo sapiens, UniProt P40337)", "sequence (P40337 whole entry)": "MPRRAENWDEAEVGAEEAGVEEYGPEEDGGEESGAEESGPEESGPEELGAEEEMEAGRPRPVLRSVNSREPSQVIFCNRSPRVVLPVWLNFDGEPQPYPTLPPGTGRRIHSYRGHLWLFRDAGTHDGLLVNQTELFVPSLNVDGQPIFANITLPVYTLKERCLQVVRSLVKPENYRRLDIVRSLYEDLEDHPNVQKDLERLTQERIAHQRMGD", "test": "Binding affinity to VHL (unknown origin) assessed as reduction of HIF1alpha derived peptide binding to VHL complex by competitive binding fluorescence polarization assay"}, "[2]": {"target": "von Hippel-Lindau disease tumor suppressor/Receptor-interacting serine/threonine-protein kinase 2 (Homo sapiens, UniProt O43353+P40337)", "sequence (O43353 whole entry)": "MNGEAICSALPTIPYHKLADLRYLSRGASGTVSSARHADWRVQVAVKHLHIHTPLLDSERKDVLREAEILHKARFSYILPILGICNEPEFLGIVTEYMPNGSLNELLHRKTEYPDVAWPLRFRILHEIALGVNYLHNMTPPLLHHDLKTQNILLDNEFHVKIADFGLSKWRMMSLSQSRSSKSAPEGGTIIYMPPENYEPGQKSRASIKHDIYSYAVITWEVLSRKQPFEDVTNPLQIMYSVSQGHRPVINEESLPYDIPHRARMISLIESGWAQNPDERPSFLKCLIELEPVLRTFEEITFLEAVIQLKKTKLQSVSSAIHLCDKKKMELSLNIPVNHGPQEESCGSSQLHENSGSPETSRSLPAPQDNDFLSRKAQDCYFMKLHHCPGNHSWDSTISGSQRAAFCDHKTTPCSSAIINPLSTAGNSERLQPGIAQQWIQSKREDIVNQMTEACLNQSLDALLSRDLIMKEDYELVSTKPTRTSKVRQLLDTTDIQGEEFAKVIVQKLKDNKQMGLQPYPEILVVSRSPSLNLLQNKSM", "sequence (P40337 whole entry)": "as the sequence (P40337 whole entry) above", "test": "Proteolysis targeting chimera activity in human THP1 cells assessed as induction of VHL-mediated delivery of RIPK2 for protein degradation by proteasome by measuring drug level causing 50% cellular protein depletion incubated for 16 hrs by Western blotting method", "assay_type": "cell-based"}}}
{"smiles": "Cc1ncsc1-c1ccc(CNC(=O)[C@@H]2C[C@@H](O)CN2C(=O)[C@@H](NC(=O)COCCOCCOCCOCCOc2cc3nccc(Nc4ccc5scnc5c4)c3cc2S(=O)(=O)C(C)(C)C)C(C)(C)C)cc1", "values": [{"measurement": "Kd", "setting": "[1]", "result": 500, "unit": "nM"}, {"measurement": "DC50", "setting": "[2]", "result": 1, "unit": "nM"}]}
